Assay: isobaric coefficient of expansion
Conditions: Liquid, expansion method

CO [methanol]
Conditions | isobaric coefficient of expansion
248.17 K, 45100 kPa | 0.000942 1/K
248.19 K, 590 kPa | 0.00112 1/K
249.69 K, 80030 kPa | 0.000847 1/K
250.17 K, 20010 kPa | 0.00104 1/K
250.17 K, 45100 kPa | 0.000939 1/K
250.18 K, 590 kPa | 0.00112 1/K
252.18 K, 590 kPa | 0.00113 1/K
252.18 K, 20010 kPa | 0.00103 1/K
252.18 K, 45100 kPa | 0.000938 1/K
252.2 K, 80030 kPa | 0.000842 1/K
254.18 K, 590 kPa | 0.00113 1/K
254.18 K, 20010 kPa | 0.00103 1/K
254.18 K, 45100 kPa | 0.00094 1/K
254.72 K, 80030 kPa | 0.000837 1/K
256.17 K, 590 kPa | 0.00114 1/K
256.17 K, 20010 kPa | 0.00103 1/K
256.18 K, 45100 kPa | 0.000937 1/K
257.2 K, 80030 kPa | 0.00084 1/K
258.17 K, 590 kPa | 0.00113 1/K
258.17 K, 20010 kPa | 0.00104 1/K
258.18 K, 45100 kPa | 0.000937 1/K
259.68 K, 80030 kPa | 0.000841 1/K
260.18 K, 590 kPa | 0.00113 1/K
260.18 K, 45100 kPa | 0.000932 1/K
262.17 K, 590 kPa | 0.00114 1/K
262.17 K, 20010 kPa | 0.00103 1/K
262.17 K, 45100 kPa | 0.000936 1/K
262.21 K, 80030 kPa | 0.000841 1/K
264.17 K, 20010 kPa | 0.00103 1/K
264.17 K, 45100 kPa | 0.000938 1/K
264.77 K, 80030 kPa | 0.000839 1/K
266.17 K, 590 kPa | 0.00113 1/K
266.17 K, 20010 kPa | 0.00103 1/K
266.17 K, 45100 kPa | 0.000942 1/K
267.34 K, 80030 kPa | 0.000835 1/K
268.16 K, 20010 kPa | 0.00103 1/K
268.17 K, 590 kPa | 0.00114 1/K
268.17 K, 45100 kPa | 0.000934 1/K
269.32 K, 80030 kPa | 0.000834 1/K
270.16 K, 590 kPa | 0.00114 1/K
270.16 K, 20010 kPa | 0.00104 1/K
272.14 K, 45100 kPa | 0.00094 1/K
272.52 K, 80030 kPa | 0.000831 1/K
274.14 K, 45100 kPa | 0.000947 1/K
274.15 K, 20010 kPa | 0.00104 1/K
275.11 K, 80030 kPa | 0.000835 1/K
276.12 K, 590 kPa | 0.00114 1/K
276.14 K, 45100 kPa | 0.000938 1/K
276.15 K, 20010 kPa | 0.00104 1/K
277.69 K, 80030 kPa | 0.000835 1/K
278.13 K, 45100 kPa | 0.00094 1/K
278.15 K, 20010 kPa | 0.00104 1/K
278.16 K, 590 kPa | 0.00115 1/K
280.14 K, 45100 kPa | 0.00094 1/K
280.15 K, 20010 kPa | 0.00104 1/K
280.16 K, 590 kPa | 0.00115 1/K
280.28 K, 80030 kPa | 0.000833 1/K
282.13 K, 45100 kPa | 0.00094 1/K
282.15 K, 590 kPa | 0.00116 1/K
282.15 K, 20010 kPa | 0.00104 1/K
282.88 K, 80030 kPa | 0.000832 1/K
284.13 K, 45100 kPa | 0.000945 1/K
284.14 K, 590 kPa | 0.00116 1/K
284.14 K, 20010 kPa | 0.00104 1/K
285.53 K, 80030 kPa | 0.000829 1/K
286.15 K, 590 kPa | 0.00118 1/K
286.15 K, 20010 kPa | 0.00105 1/K
288.14 K, 45100 kPa | 0.000945 1/K
288.16 K, 590 kPa | 0.00117 1/K
288.17 K, 80030 kPa | 0.000826 1/K
289.13 K, 590 kPa | 0.00118 1/K
290.13 K, 45100 kPa | 0.000945 1/K
290.14 K, 20010 kPa | 0.00106 1/K
290.16 K, 590 kPa | 0.00117 1/K
290.79 K, 80030 kPa | 0.000832 1/K
291.13 K, 590 kPa | 0.00118 1/K
292.14 K, 45100 kPa | 0.000943 1/K
292.15 K, 20010 kPa | 0.00104 1/K
292.16 K, 590 kPa | 0.00117 1/K
293.12 K, 590 kPa | 0.00119 1/K
293.4 K, 80030 kPa | 0.000846 1/K
294.13 K, 45100 kPa | 0.000938 1/K
294.14 K, 20010 kPa | 0.00105 1/K
294.16 K, 590 kPa | 0.00118 1/K
295.12 K, 590 kPa | 0.0012 1/K
296.02 K, 80030 kPa | 0.000842 1/K
296.13 K, 45100 kPa | 0.00094 1/K
296.14 K, 20010 kPa | 0.00105 1/K
296.16 K, 590 kPa | 0.00117 1/K
297.12 K, 590 kPa | 0.00118 1/K
298.13 K, 45100 kPa | 0.000942 1/K
298.15 K, 20010 kPa | 0.00105 1/K
298.17 K, 590 kPa | 0.00118 1/K
298.65 K, 80030 kPa | 0.00085 1/K
300.16 K, 590 kPa | 0.00119 1/K
301.27 K, 80030 kPa | 0.000833 1/K

— the NIST ThermoML archive (doi:10.1021/je060415l)
